The assay is described as follows: Inhibition of Kir2.1 (unknown origin).

For orientation: pIC50 means −log10 of the IC50, conventionally taken in molar units.

Molecules are shown by their SMILES. pIC50: −log10 of the molar value.

For the molecule `C[C@]1(CN2Cc3nc(-c4ccc(F)cc4)sc3C2)CN=C(N)O1`, the negative-log IC50 (pIC50) was less than 4.88.

For `C[C@]1(CN2Cc3nc(-c4ccc(F)cc4)sc3C2)Cn2cc([N+](=O)[O-])nc2O1`, the pIC50 was less than 4.40.
